Data reported in patent US10654816B2, “Compounds and compositions for treating conditions associated with NLRP activity” (NOVARTIS INFLAMMASOME RESEARCH, INC., priority 2017, dated 2020).

Tested on: IL-1β production in PMA-differentiated THP-1 cells
Test: IL-1β production in PMA-differentiated THP-1 cells stimulated with gramicidin (hTHP-1 assay, HTRF readout; Procedures 1-3)
Assay type: cell-based, human
Conditions: Homo sapiens, THP-1, hTHP-1 assay containing 2% fetal bovine serum; average; class symbols; read-out: hTHP-1 IC50 (Average IC50 of compounds in hTHP-1 assay)
Outline: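 PMA-differentiated (20 ng/ml, 16-18 h) THP-1 cells in RPMI with 2% FBS, 50,000 cells/well, preincubated 1 h with compound (final 0.0017-100 μM, 0.37% DMSO), then stimulated with 5 μM gramicidin for 2 h. IL-1β in cell-free supernatant measured by HTRF (620/668 nm).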

SMILES	IC50
CC(C)(O)c1ccc(S(N)(=O)=NC(=O)Nc2c3c(c(F)c4c2CCC4)CCC3)c(F)c1 (stereo not shown) [Example 47, 2-fluoro-N′-(8-fluoro-1,2,3,5,6,7-hexahydro-s-indacen-4-ylcarbamoyl)-4-(2-hydroxypropan-2-yl)benzenesulfonimidamide]	0.2 to 1 µM
CC(C)c1cc(F)cc(C(C)C)c1NC(=O)N=S(N)(=O)c1ccc(S(C)(=O)=O)cc1 (single isomer, unassigned) [Example 145, (R)- or (S)-N′-(4-fluoro-2,6-diisopropylphenylcarbamoyl)-4-(methylsulfonyl)-benzenesulfonimidamide]	5 to 30 µM
CC(C)c1cc(F)cc(C(C)C)c1NC(=O)N=S(N)(=O)c1ccc2c(c1)CCO2 (stereo not shown) [Example 211, N′-((4-fluoro-2,6-diisopropylphenyl)carbamoyl)-2,3-dihydrobenzofuran-5-sulfonimidamide]	5 to 30 µM
CC(C)c1cc(C#N)cc(C(C)C)c1NC(=O)N=S(N)(=O)c1cc(C(C)(C)O)cc(C(C)(C)O)c1 (single isomer, unassigned) [Example 198, N′-((4-cyano-2,6-diisopropylphenyl)carbamoyl)-3,5-bis-(2-hydroxypropan-2-yl)benzenesulfonimidamide]	5 to 30 µM
CC(C)c1cc(F)cc(C(C)C)c1NC(=O)N=S(N)(=O)c1ncc(C(C)(C)O)s1 (stereo not shown) [Example 39, N′-(4-fluoro-2,6-diisopropylphenylcarbamoyl)-5-(2-hydroxypropan-2-yl)thiazole-2-sulfonimidamide]	0.2 to 1 µM
CC(C)c1cc(C#N)cc(C(C)C)c1NC(=O)N=S(N)(=O)c1ccc(S(C)(=O)=O)cc1 (single isomer, unassigned) [Example 196, (S)- or (R)-N′-((4-cyano-2,6-diisopropylphenyl)carbamoyl)-4-(methylsulfonyl)-benzenesulfonimidamide]	5 to 30 µM

Continued, values first:

IC50	SMILES
1 to 5 µM	CCc1ccc2cn[nH]c2c1NC(=O)N=S(N)(=O)c1cnc(C(C)(C)O)s1 (stereo not shown) [Example 290, N′-((6-ethyl-1H-indazol-7-yl)carbamoyl)-2-(2-hydroxypropan-2-yl)thiazole-5-sulfonimidamide]
5 to 30 µM	Cn1ncc2cc(S(N)(=O)=NC(=O)Nc3c4c(cc5c3CCC5)CCC4)ccc21 (stereo not shown) [Example 273, N′-(1,2,3,5,6,7-hexahydro-s-indacen-4-ylcarbamoyl)-1-methyl-1H-indazole-5-sulfonimidamide]
1 to 5 µM	NS(=O)(=NC(=O)Nc1c2c(cc3c1CCC3)CCC2)c1ccc(CN2CCOCC2)cc1 (stereo not shown) [Example 234, N′-(1,2,3,5,6,7-hexahydro-s-indacen-4-ylcarbamoyl)-4-(morpholino-methyl)benzenesulfonimidamide]
1 to 5 µM	C#CCCC(=O)N(C)Cc1ccc(S(N)(=O)=NC(=O)Nc2c3c(cc4c2CCC4)CCC3)cc1 (stereo not shown) [Example 261, N-(4-(N′-((1,2,3,5,6,7-hexahydro-s-indacen-4-yl)carbamoyl)sulfamidimidoyl)benzyl)-N-methylpent-4-ynamide]
0.2 to 1 µM	CC(C)Cc1ccc(S(N)(=O)=NC(=O)Nc2c3c(cc4c2CCC4)CCC3)cn1 (single isomer, unassigned) [Example 416, (S) or (R)-N′-((1,2,3,5,6,7-hexahydro-s-indacen-4-yl)carbamoyl)-6-isobutylpyridine-3-sulfonimidamide]
0.008 to 0.04 µM	CC(C)(O)c1cc(F)c(S(N)(=O)=NC(=O)Nc2c3c(cc4c2CC4)CCC3)s1 (stereo not shown) [Example 281, 3-fluoro-5-(2-hydroxypropan-2-yl)-N′-((2,4,5,6-tetrahydro-1H-cyclobuta[f]inden-3-yl)carbamoyl)thiophene-2-sulfonimidamide]
5 to 30 µM	CC(=O)NS(=O)(=NC(=O)Nc1c2c(cc3c1CCC3)CCC2)c1cnc(C(C)(C)O)s1 (stereo not shown) [Example 250]
1 to 5 µM	NS(=O)(=NC(=O)Nc1c2c(c(F)c3c1CCC3)CCC2)c1ccc(O)cc1F (stereo not shown) [Example 229, 2-Fluoro-N′-(8-fluoro-1,2,3,5,6,7-hexahydro-s-indacen-4-ylcarbamoyl)-4-hydroxybenzenesulfonimidamide]
5 to 30 µM	CCc1ccc2cnn(C)c2c1NC(=O)N=S(N)(=O)c1ncc(C(C)(C)O)s1 (stereo not shown) [Example 255, N′-((6-ethyl-1-methyl-1H-indazol-7-yl)carbamoyl)-5-(2-hydroxypropan-2-yl)thiazole-2-sulfonimidamide]
5 to 30 µM	Cc1nc(C)c(S(N)(=O)=NC(=O)Nc2c(C(C)C)cc(F)cc2C(C)C)s1 (stereo not shown) [Example 428, 3-[amino(dimethyl-1,3-thiazol-5-yl)oxo-λ^6-sulfanylidene]-1-[4-fluoro-2,6-bis(propan-2-yl)phenyl]urea]
1 to 5 µM	Cc1nc(C(C)(C)O)ccc1S(N)(=O)=NC(=O)Nc1c2c(cc3c1CCC3)CCC2 (stereo not shown) [Example 264, N′-((1,2,3,5,6,7-hexahydro-s-indacen-4-yl)carbamoyl)-6-(2-hydroxypropan-2-yl)-2-methylpyridine-3-sulfonimidamide]

Same assay, conditions: Homo sapiens, THP-1, hTHP-1 assay containing 2% fetal bovine serum; average; given as bound; read-out: hTHP-1 IC50 (Average IC50 of compounds in hTHP-1 assay)

SMILES	IC50
CC(C)c1cc(F)cc(C(C)C)c1NC(=O)N=S(N)(=O)c1ccc(S(C)(=O)=O)cc1 (single isomer, unassigned) [Example 144, (S)- or (R)-N′-(4-fluoro-2,6-diisopropylphenylcarbamoyl)-4-(methylsulfonyl)-benzenesulfonimidamide]	> 30 µM
CC(C)c1cc(F)cc(C(C)C)c1NC(=O)N=S(N)(=O)c1ccc(CN(C)C)cc1 (single isomer, unassigned) [Example 133, (R)- or (S)-4-((dimethylamino)methyl)-N′-(4-fluoro-2,6-diisopropylphenyl-carbamoyl)benzenesulfonimidamide]	> 30 µM
CC(C)c1cc(F)cc(C(C)C)c1NC(=O)N=S(N)(=O)c1ccc2ccccc2c1 (stereo not shown) [Example 210, N′-((4-fluoro-2,6-diisopropylphenyl)carbamoyl)naphthalene-2-sulfonimidamide]	> 30 µM
CC(C)c1cc(C#N)cc(C(C)C)c1NC(=O)N=S(N)(=O)c1ccc(S(C)(=O)=O)cc1 (single isomer, unassigned) [Example 197, (R)- or (S)-N′-((4-cyano-2,6-diisopropylphenyl)carbamoyl)-4-(methyl-sulfonyl)benzenesulfonimidamide]	> 30 µM
CC(C)c1cc(F)cc(C(C)C)c1NC(=O)N=S(N)(=O)c1ccccc1-c1ccccc1 (stereo not shown) [Example 212, N′-((4-fluoro-2,6-diisopropylphenyl)carbamoyl)-[1,1′-biphenyl]-2-sulfonimidamide]	> 30 µM

Continued, values first:

IC50	SMILES
> 30 µM	CN(C)S(=O)(=NC(=O)Nc1c2c(cc3c1CCC3)CCC2)c1cc(C(C)(C)O)cs1 (single isomer, unassigned) [Example 358, (S) or (R) -N′-((1,2,3,5,6,7-hexahydro-s-indacen-4-yl)carbamoyl)-4-(2-hydroxypropan-2-yl)-N,N-dimethylthiophene-2-sulfonimidamide]
> 30 µM	CC(C)c1cc(F)cc(C(C)C)c1NC(=O)N=S(N)(=O)c1cnc2n1CCC2 (stereo not shown) [Example 219, N′-((4-fluoro-2,6-diisopropylphenyl)carbamoyl)-6,7-dihydro-5H-pyrrolo[1,2-a]imidazole-3-sulfonimidamide]
> 30 µM	CCc1ccc2cn(C)nc2c1NC(=O)N=S(N)(=O)c1ncc(C(C)(C)O)s1 (stereo not shown) [Example 256, N′-((6-ethyl-2-methyl-2H-indazol-7-yl)carbamoyl)-5-(2-hydroxypropan-2-yl)thiazole-2-sulfonimidamide]
> 30 µM	CN1CCc2cc(S(N)(=O)=NC(=O)Nc3c4c(cc5c3CCC5)CCC4)ccc2C1 (single isomer, unassigned) [Example 396, (S) or (R)-N′-((1,2,3,5,6,7-hexahydro-s-indacen-4-yl)carbamoyl)-2-methyl-1,2,3,4-tetrahydroisoquinoline-6-sulfonimidamide]

Same assay, conditions: Homo sapiens, THP-1, hTHP-1 assay containing 2% fetal bovine serum; average; numeric bound printed without unit; read-out: hTHP-1 IC50 (Average IC50 of compounds in hTHP-1 assay)

SMILES	IC50
CC(C)c1cc(OC(F)F)cc(C2CC2)c1NC(=O)N=S(N)(=O)c1ccc(C(C)(C)O)cc1F (single isomer, unassigned) [Example 167, (R)- or (S)-N′-((2-cyclopropyl-4-(difluoromethoxy)-6-isopropylphenyl)carbamoyl)-2-fluoro-4-(2-hydroxypropan-2-yl)benzenesulfonimidamide]	> 11.2 µM

Same assay, conditions: hTHP-1 assay containing 2% fetal bovine serum; average; class symbols; read-out: hTHP-1 IC50 (Average IC50 of compounds in hTHP-1 assay)

SMILES	IC50
CC(C)(O)c1ncc([S@@](N)(=O)=NC(=O)Nc2c3c(cc4c2CC4)CCC3)s1 (single isomer, unassigned) [Example 225]	1 to 5 µM
C#CCCC(=O)N(C)Cc1ccc(S(N)(=O)=NC(=O)Nc2c3c(cc4c2CCC4)CCC3)cc1 (single isomer, unassigned) [Example 313, (R) or (S)-N-(4-(N′-((1,2,3,5,6,7-hexahydro-s-indacen-4-yl)carbamoyl)sulfamid-imidoyl)benzyl)-N-methylpent-4-ynamide]	1 to 5 µM

Same assay, conditions: hTHP-1 assay containing 2% fetal bovine serum; average; given as bound; read-out: hTHP-1 IC50 (Average IC50 of compounds in hTHP-1 assay)

SMILES	IC50
CNS(=O)(=NC(=O)Nc1c2c(cc3c1CCC3)CCC2)c1ccc(CN(C)C)cc1 (single isomer, unassigned) [Example 384, (S) or (R)-4-((dimethylamino)methyl)-N′-((1,2,3,5,6,7-hexahydro-s-indacen-4-yl)carbamoyl)-N-methylbenzene-sulfonimidamide]	> 30 µM
